Assays:
[1] = Pharmacokinetics: plasma and brain levels of KU-32 in mice by LC-MS; type: in vivo; conditions: female Balb/c mice, 2 or 20 mg/kg, IP or IV injection, FIG. 1
Method: (§1) The plasma and brain levels of the Hsp90 inhibitor KU-32 as a function of time in mice were investigated following IP or IV injection to mice. Pharmacokinetics of KU-32 levels in mouse plasma and brain was determined by LC-MS. For these studies, female Balb/c mice (6-7 weeks) were injected with either 2 or 20 mg/kg KU-32 or vehicle. Mice were sacrificed at predetermined time points and plasma was collected following cardiac puncture for determination of KU-32 levels. The animals were perfused with normal saline and the brain was harvested and homogenized. Half the brain was analyzed for KU-32 levels and the remaining half was analyzed for Hsp70 levels.

[2] = test system: Hsp70; test: Hsp70 levels in mouse brain after KU-32 IP administration (Hsp70/actin densitometry); type: in vivo, mice; conditions: single IP injection 2 or 20 mg/kg, frontal and hind brain sections, FIG. 2
Method: as §1
Changes in Hsp70 levels in mouse brain over time following KU-32 IP administration were determined. The ratio of Hsp70 to actin was determined in frontal and hind brain sections recovered from brains of mice at each indicated time point shown in FIG. 2 following administration of either 2 or 20 mg/kg KU-32, as discussed in Example 1. Densitometric analyses were performed, and the ratio of the Hsp70 immunoreactivity was determined using actin as a loading control.

[3] = Phase-solubility of KU-32 in Captisol in water; type: physicochemical
Method: On day 12 of the study mice received 2, 5 or 10 mg/kg KU-32 by IP injection on a daily basis. KU-32 was formulated at all concentrations in 0.05 M Captisol®. To access the phase-solubility behavior of KU-32 in Captisol®, KU-32 in excess of its expected solubility were equilibrated with increasing concentrations of Captisol® in water. The suspensions were allowed to equilibrate at least 24-hours at 25° C., after which time the suspensions were centrifuged and the KU-32 concentration in the supernatant determined by RP-HPLC.

[4] = test system: Experimental Autoimmune Encephalomyelitis; EAE; test: Daily dosing in murine EAE multiple sclerosis model; type: in vivo, mice
Source text: In this example, female SJL/J mice (6-7 weeks old) were immunized with proteolipid protein (“PLP”) in CFA and pertussis toxin IV on day 0. The mice were boosted with PLP in IFA on day seven.

[5] = test system: EAE model; test: Single vs. weekly dosing in murine EAE MS model; type: in vivo, mice; conditions: single 20 mg/kg IP dose at onset of symptoms, first onset of disease (10-20 days)
Method: In this example, female SJL/J mice (6-7 weeks old) were immunized with proteolipid protein (“PLP”) in CFA and pertussis toxin IV on day 0. The mice were boosted with PLP in IFA on day seven. At the onset of symptoms, mice received either a single 20 mg/kg dose of KU-32 IP, weekly 2 mg/kg IP doses of KU-32, or no treatment. The mice were scored daily for severity of disease and body weight.

[6] = test system: neuregulin-induced demyelination; test: Cell culture model of myelinated nerve; type: cell-based
Source text: Diabetic peripheral neuropathy (DPN) results from the degeneration of nerves that transmit sensations from the legs and arms. Schwann cells are specialized cells that closely associate with many nerves and also undergo profound changes in DPN. Schwann cells are necessary to form the myelin membrane that is present on many peripheral nerves and the loss of this myelin membrane is a common characteristic of human diabetic neuropathy. Identifying molecular mechanisms that may prevent demyelination or enhance remyelination are therefore good targets for therapeutic interventions in human DPN. Altered neurotrophism in DPN is described in detail in, for example, Dobrowsky et al., JPET 313:485-491, 2005. Heat shock protein 90 inhibitors offer a potential therapeutic approach toward treating DPN. A cell culture model of myelinated nerve was used to identify new molecular targets that can prevent demyelination.

[7] = test system: streptozotocin (STZ)-induced diabetic neuropathy; test: STZ-induced diabetic neuropathy mouse model, initial studies (treatment after 8 weeks of diabetes); type: in vivo
Method: Physiological studies were performed in a diabetic mouse model to determine if KU-32 is suitable for further pre-clinical development. A mouse model of streptozotocin (STZ)-induced diabetic neuropathy was utilized. One such diabetic mouse model is described, for example, in Christianson et al., Neuroscience, 2007, 145 (1): 303-313. […] Thus, although the drug was capable of attenuating the decline in SNCV, a more powerful indicator of efficacy and clinical usefulness was desired to indicate the drug could reverse a pre-existing deficit in NCV. […] The study was therefore repeated with a larger trial size and under more stringent long-term diabetic conditions prior to weekly drug administration.

[8] = test system: streptozotocin (STZ)-induced diabetic neuropathy; test: STZ-induced diabetic neuropathy mouse model, second trial (treatment after 12 weeks of diabetes); type: in vivo
Method: In a second trial, mice were rendered diabetic for 12 weeks. Diabetes was induced in test mice by 3 injections of streptozotocin (STZ) (n=28), and control mice (n=28) received a vehicle injection. Nerve conduction velocity (NCV) was measured in 4 mice from each group after 12 weeks, prior to initiating KU-32 treatment, after which time they developed substantial deficits in MNCV and SNCV (FIG. 7). Asterisks indicates p<0.05 compared to the time matched control. Diabetic mice also developed a substantial mechanical hypoalgesia after 5 weeks (FIG. 8) and a rapid onset of a thermal hypoalgesia (FIG. 9). Thus, any improvements by KU-32 were considered to be indicative of reversibility of a pre-existing deficits and not prevention.
After 12 weeks of diabetes, mice received weekly doses of 20 mg/kg KU-32 or vehicle by IP injection, and thermal and mechanical hypoalgesia were monitored. […] The asterisk indicates p<0.05 compared to the time matched control. The carat indicates p<0.05 compared to 14 weeks of STZ-Veh. Animal numbers were n=28 for Veh-Veh and STZ-Veh up to 12 weeks. Group numbers were n=12 at initiation of KU-32 and its vehicle (Veh).
The asterisk indicates p<0.05 compared to the time matched control, and the carat indicates p<0.05 compared to 14 weeks of STZ-Veh. Animal numbers were n=28 for Veh-Veh and STZ-Veh up to 12 weeks. Group numbers were n=12 at initiation of KU-32 and its vehicle (Veh).
Importantly, a similar recovery was evident after 12 weeks of diabetes despite the onset in improvement requiring 4 weeks of treatment. The delay may relate to the more severe decline in the function of the smaller sensory fibers since treatment was not started until 12 weeks of diabetes. The diabetic mice were very ill after 16 weeks and therefore were terminated at this time. […] Since the deficits in mechanical and thermal hypoalgesia reached a plateau between 12-14 weeks, the measures at 14 weeks of diabetes were used to assess for statistical improvements in sensory function after 3 or more weeks of KU-32 treatment. […] Thus, KU-32 improves nerve function in the absence of an overall improvement in metabolic parameters related to diabetes, i.e., hyperglycemia and weight loss. The data provides solid proof-of-principle that KU-32 can effectively reverse pre-existing deficits in two sensory measures that are direct, clinically relevant, parallels of human symptoms.

[9] = weekly 20 mg/kg IP after 8 weeks of diabetes, did not reach significance
[10] = diabetic animals receiving KU-32 compared to the diabetic mice

Q: What does the source list for CO[C@@H]1[C@@H](O)[C@@H](O)[C@H](Oc2ccc3cc(NC(C)=O)c(=O)oc3c2C)OC1(C)C [KU-32, N-(7-((2R,3R,4S,5R)-3,4-dihydroxy-5-methoxy-6,6-dimethyltetrahydro-2H-pyran-2-yloxy)-8-methyl-2-oxo-2H-chromen-3-yl)acetamide]?
A: KU-32 levels in mouse plasma and brain over time [1]: fall below detectable limits by eight hours; Hsp70 levels in mouse brain (ratio of Hsp70 to actin) [2]: increased following single IP injection of KU-32 in mice over a 72-96 hour period and remained elevated; phase-solubility behavior ([3]; 0.05-0.2 M Captisol in water, at least 24 hours at 25° C., RP-HPLC): AP-type; solubility in 0.05 M Captisol ([3]; 0.05 M Captisol): adequate solubility; body weights ([4]; SJL/J mice, 2, 5 or 10 mg/kg IP daily from day 12, FIG. 3): increase in the rate of onset and worsening of the disease; clinical score ([4]; SJL/J mice, 2, 5 or 10 mg/kg IP daily from day 12, FIG. 4): increase in the rate of onset and worsening of the disease; clinical score ([5]; FIG. 5): better clinical score; body weight ([5]; FIG. 6): lost less body weight; neuregulin-induced demyelination [6]: prevent neuregulin-induced demyelination; time to improvement in thermal sensitivity ([7]; treatment initiated after 8 weeks of diabetes): evident within two weeks; thermal hypoalgesia ([7]; weekly 20 mg/kg IP after 8 weeks of diabetes): sufficient to improve thermal hypoalgesia; sensory nerve conduction velocity (SNCV) ([7]; weekly 20 mg/kg IP after 8 weeks of diabetes, decrease observed after 15 weeks of diabetes): helped to improve the decrease in sensory nerve conduction velocity; mechanical hypoalgesia [7, 9]: seemed to have an effect on mechanical hypoalgesia; motor NCV (MNCV) deficit [7, 9]: improved the pre-existing motor NCV (MNCV) deficit; body weight [8, 10]: no differences; fasting blood glucose [8, 10]: no differences; onset in improvement of thermal sensitivity ([8]; treatment started after 12 weeks of diabetes): 4 weeks of treatment; mechanical hypoalgesia ([8]; weekly 20 mg/kg IP after 12 weeks of diabetes, FIG. 8): significantly improved the mechanical hypoalgesia after 3 weeks of treatment; thermal hypoalgesia ([8]; weekly 20 mg/kg IP after 12 weeks of diabetes, FIG. 9): improved thermal hypoalgesia

Source: patent publication US20100022635A1, “Heat shock protein 90 inhibitor dosing methods” (University of Kansas, priority 2008, published 2010)
